Patent US20050282154A1 (priority 2003, published 2005)

Columns and labels:
[1] = system: S1 domain of the SARS-CoV S protein; assay type: binding
[2] = system: SARS-CoV S protein-expressing 293 T cells and ACE-2-expressing 293 T cells; assay type: cell-based, human

With soluble ACE-2 the “blocking of association of S1-Ig (S1 domain) with Vero E6 cells” value [1] was “blocked association” and the “blocking of syncytia formation mediated by the SARS-CoV S protein” value [2] was “partially blocked”.
